Common to all, as to test: NCI-60 cell line screen, 48 h
Assay [1] relates to SK-MEL-2 melanoma.
The test system of assay [2] is SR leukemia.
The test system of assay [3] is A549 NSCLC.
Assay [4] deals with HS 578T breast.
The test system of assay [5] is NCI-H23 lung.
Assay [6] concerns SN12C renal.
Assay [7] has as its system CCRF-CEM leukemia.
The test system of assay [8] is HT29 colon.
Assay [9] has as its system ACHN renal.
For assay [10], the system named is SNB-75 CNS.
Assay [11] has as its system K-562 leukemia.
For assay [12], the system named is A498 renal.
Assay [13] concerns OVCAR-8 ovarian.
For assay [14], the system named is SNB-19 CNS.
Assay [15] deals with MDA-N.
Assay [16] relates to NCI-H226 lung.
The test system of assay [17] is MDA-MB-435.
Assay [18] relates to HCC-2998 colon.
In assay [19] the test system is CAKI-1 renal.
Assay [20] concerns PC-3 prostate.

Molecules are shown by their SMILES.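 These data come from cells grown in 96-well plates and exposed to compound for 48 hours at five concentrations. TGI is the concentration that stops growth completely.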 Where a SMILES comes first, the peptide text is derived from it. The star is where a group is joined. Cbz = O=C(OCc1ccccc1)*; NHNH2 = NN* Bounds are passed on as bounds.

For the compound `CCCCc1ccc(Nc2nc3c(ncn3COCCO)c(=O)[nH]2)cc1`, the TGI in assay [1], in assay [2], in [3], in [4], in assay [5] and in [6] was above 100 µM each time. Further, the TGI in assay [7], in assay [8], in [9], in assay [10], in assay [11] and in assay [12] was above 100 µM throughout. Also, the TGI in [13], in assay [14], in assay [15], in assay [16], in assay [17] and in assay [18] was above 100 µM each time.

Consider `Cc1nc(C)c(Cc2ccccc2)o1`, for which the TGI in [3], in assay [4], in assay [5], in [19], in [6] and in assay [7] was above 100 µM each time. Also, the TGI in assay [8], in [9], in assay [10], in [11], in assay [12] and in assay [13] was above 100 µM throughout. For the same compound, the TGI in assay [20], in assay [14], in assay [15], in assay [16], in assay [17] and in assay [18] was above 100 µM in each case.

With `COc1ccc2cc(NC(=O)N/N=C\c3ccc(Cl)cc3)ccc2c1`, the TGI in [1] was above 100 µM; in assay [2] it was above 100 µM; in [3], above 100 µM; in assay [4], 68.8 µM; in assay [5] it was above 100 µM; in assay [19], above 100 µM. Moreover, the TGI in assay [6], in assay [7], in assay [8], in assay [9], in assay [10] and in assay [11] was above 100 µM each time. For the same compound, the TGI in [13], in assay [20], in assay [14], in assay [15], in assay [16] and in assay [17] was above 100 µM in each case. Moreover, in assay [18], the TGI is above 100 µM.

Regarding `O=C(Cc1ccc([N+](=O)[O-])cc1)OCC#CCOC(=O)Cc1ccc([N+](=O)[O-])cc1`, the TGI in assay [1], in assay [2], in [3], in [4], in assay [5] and in assay [6] was above 10 µM each time. Further, the TGI in [7], in [8], in assay [9], in assay [10], in assay [11] and in assay [13] was above 10 µM each time. For the same compound, the TGI in assay [20], in assay [14], in assay [15] and in [17] was above 10 µM throughout.

For `COC(=O)C1=Nc2c(C)nn(-c3ccccc3)c2N=C(c2ccc([N+](=O)[O-])cc2)C1`, the TGI in [2], in assay [3], in [4], in assay [5], in assay [19] and in assay [6] was above 10 µM each time. Besides, the TGI in assay [7], in assay [8], in assay [9], in assay [10], in [11] and in assay [13] was above 10 µM each time. Moreover, the TGI in assay [20], in [14], in assay [15], in [17] and in assay [18] was above 10 µM in each case.

As for `CC(=S)N=Cc1c(O)cc(C)oc1=O`, the TGI in [1], in assay [3], in [4], in assay [5], in assay [19] and in assay [6] was above 100 µM in each case. In addition, the TGI in [7], in assay [8], in [9], in assay [10], in assay [11] and in assay [12] was above 100 µM each time. The TGI in assay [13], in [20], in assay [14], in [15], in [16] and in [17] was above 100 µM in each case. This compound showed a TGI in assay [18] above 100 µM.

With `NC(=O)C(=CNC(=S)c1ccncc1)C(N)=O`, the TGI in assay [1], in assay [2], in [3], in assay [4], in assay [5] and in assay [19] was above 100 µM throughout. For the same compound, the TGI in assay [6], in assay [7], in [8], in assay [9], in assay [11] and in [13] was above 100 µM throughout. Besides, the TGI in assay [20], in assay [14], in assay [15], in [16], in assay [17] and in assay [18] was above 100 µM throughout.

Regarding `COc1cc2c(/C=C3/C(=O)Nc4ccccc43)c(Cl)[nH]c2cc1C`, the TGI in assay [1] is 25.4 µM; in assay [2] it was 10.1 µM; in assay [3] it was 22.7 µM; in assay [4] it was above 100 µM; in [5], 0.879 µM; in assay [19] it was 23.6 µM. For the same compound, the TGI in [6] is 13.1 µM; in assay [7], above 67.8 µM; in assay [8], 1.05 µM; in assay [9] it was 17.4 µM; in assay [10], 17.9 µM; in [11] it was 24 µM. The TGI was 19.8 µM in [12]; 12.6 µM in assay [13]; 16.3 µM in assay [20]; 17.5 µM in assay [14]; 0.0396 µM in assay [15]; above 100 µM in assay [16]. For the same compound, in assay [18], the TGI turned out to be 0.982 µM.

For `COC(=O)CC(NC(=O)OCc1ccccc1)C(=O)NC(CC(=O)OC)C(=O)NC(CC(=O)OC)C(=O)NC(CC(=O)OC)C(=O)NC(CC(=O)OC)C(=O)NC(CC(=O)OC)C(=O)NN` (stereo not drawn) (Cbz-D(OMe)D(OMe)D(OMe)D(OMe)D(OMe)D(OMe)-NHNH2; configuration not given here), the TGI in [1], in assay [2], in assay [4], in assay [6], in assay [7] and in [8] was above 100 µM throughout. For the same compound, the TGI in assay [9], in assay [10], in assay [11], in assay [13], in [20] and in assay [14] was above 100 µM throughout. The TGI in assay [15], in [17] and in assay [18] was above 100 µM in each case.

Consider `O=c1[nH]nc(-c2ccccc2)c2[nH]c(-c3ccccc3)cc12`, for which the TGI in assay [2], in [3], in assay [4], in assay [5], in assay [19] and in assay [6] was above 100 µM each time. The TGI in assay [7], in assay [8], in assay [10], in assay [11], in assay [13] and in assay [14] was above 100 µM throughout. The TGI in [15] and in assay [17] was above 100 µM each time.

`O=c1c2ccccc2nc(Nc2cccc(Cl)c2)n1/N=C/C=C/c1ccccc1`: the TGI in assay [1], in [2], in [3], in assay [4], in [5] and in assay [19] was above 100 µM throughout. Further, the TGI in assay [6], in assay [7], in [8], in assay [9], in assay [10] and in assay [11] was above 100 µM in each case. The TGI is above 100 µM in assay [13]; 97.4 µM in assay [20]; above 100 µM in assay [14]; above 100 µM in assay [15]; above 100 µM in assay [16]; above 100 µM in assay [17]. Moreover, in [18], the TGI was above 100 µM.

On to `CCC(=O)Oc1c2ccsc2c(OC(=O)CC)c2ccsc12`, for which the TGI in assay [1] is 1.39 µM; in assay [2] it was 0.806 µM; in [3], 4.51 µM; in [4], 1.2 µM; in [5], 0.364 µM; in [19] it was 6.13 µM. For the same compound, the TGI in [6] stood at 1.16 µM; in [7], 9.52 µM; in assay [8], 5.56 µM; in assay [9], 5.49 µM; in assay [10] it was 0.341 µM; in [12], 15 µM. In addition, the TGI is 1.4 µM in assay [13]; 1.58 µM in [14]; 0.136 µM in assay [15]; 4.09 µM in [16]; 0.159 µM in assay [17]; 3.49 µM in [18].

Consider `Cn1c2ccccc2n2c(=O)c3cc([N+](=O)[O-])ccc3c(C#N)c12`, for which the TGI in assay [1], in assay [2], in [3], in assay [4], in [5] and in [7] was above 100 µM each time. The TGI in [8], in assay [9], in assay [10], in assay [11], in assay [13] and in [20] was above 100 µM in each case. In addition, the TGI in assay [14], in [15], in assay [16], in [17] and in assay [18] was above 100 µM each time.

For the compound `COc1ccc2c(c1)CN1C(=N2)CSC1c1ccccc1Cl` (stereo not drawn), the TGI in assay [1] is 37.3 µM; in assay [2] it was 27 µM; in [3] it was above 100 µM; in assay [4], 82.5 µM; in assay [5], 3.45 µM; in assay [19], above 100 µM. Also, the TGI in assay [6] was 40.1 µM; in assay [8], 32.8 µM; in [9], 41.8 µM; in assay [10], 48.8 µM; in assay [11], 30.5 µM; in [13], 43.2 µM. For the same compound, the TGI in assay [20] was 70.5 µM; in [14] it was above 100 µM; in [15], 36.1 µM; in [16], 31.3 µM; in assay [17], 39.9 µM; in [18] it was 29.8 µM.

As for `Cc1cc2[nH]c3c(C#N)c4c(c(=O)n3c2cc1C)CCCC4`, the TGI in [1], in assay [3], in assay [4], in [5], in [19] and in assay [6] was above 100 µM throughout. Also, the TGI in assay [7], in assay [8], in assay [9], in assay [11], in assay [12] and in assay [13] was above 100 µM each time. In addition, the TGI in [20], in assay [14], in [15], in assay [16], in assay [17] and in assay [18] was above 100 µM each time.

Values taken from PubChem BioAssay (NCI).
